Measurements: ChEMBL document CHEMBL1201862, “PubChem BioAssay data set” (2004)
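96-well plates; 48 h exposure; 5 concentrations. Endpoints by linear interpolation between flanking doses. Not reached: highest tested concentration assigned. Abbreviation: GI50, concentration required for 50% inhibition of growth.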 The source made the active and inactive calls. Rule as the data show it: active = GI50 up to about 1.1 µM and inactive = higher.

Key:
Experiment in all cases: growth of human tumour cells (NCI), 48 h
A498 = tested on: A498
A549 = tested on: A549
BT-549 = tested on: BT-549
CCRF-CEM = tested on: CCRF-CEM
COLO 205 = tested on: COLO 205
HCC 2998 = tested on: HCC 2998
HOP-92 = tested on: HOP-92
IGROV-1 = tested on: IGROV-1
LOX IMVI = tested on: LOX IMVI
NCI-H226 = tested on: NCI-H226
NCI-H460 = tested on: NCI-H460
OVCAR-5 = tested on: OVCAR-5
RPMI-8226 = tested on: RPMI-8226
RXF 393 = tested on: RXF 393
SN12C = tested on: SN12C
SNB-19 = tested on: SNB-19
SR = tested on: SR
SW-620 = tested on: SW-620
HOP-62 = tested on: HOP-62

SMILES	GI50 (A498)	GI50 (A549)	GI50 (BT-549)	GI50 (CCRF-CEM)	GI50 (COLO 205)	GI50 (HCC 2998)	GI50 (HOP-92)	GI50 (IGROV-1)	GI50 (LOX IMVI)	GI50 (NCI-H226)	GI50 (NCI-H460)	GI50 (OVCAR-5)	GI50 (RPMI-8226)	GI50 (RXF 393)	GI50 (SN12C)	GI50 (SNB-19)	GI50 (SR)	GI50 (SW-620)	GI50 (HOP-62)
CCOC(=O)C(=O)C(CCC(=O)c1ccc2ccccc2c1O)C(=O)OCC (stereo not given)	> 100 µM (inactive)	> 100 µM (inactive)	> 100 µM (inactive)	> 100 µM (inactive)	> 100 µM (inactive)	> 100 µM (inactive)	> 100 µM (inactive)	> 100 µM (inactive)	> 100 µM (inactive)	38.5 µM (inactive)	> 100 µM (inactive)	> 100 µM (inactive)	> 100 µM (inactive)	> 100 µM (inactive)	> 100 µM (inactive)	> 100 µM (inactive)	> 100 µM (inactive)	> 100 µM (inactive)	
COc1ccc2[nH]c(CCNC(=O)c3cc([N+](=O)[O-])cc([N+](=O)[O-])c3)cc2c1	> 100 µM (inactive)	> 100 µM (inactive)	> 100 µM (inactive)	> 100 µM (inactive)	> 100 µM (inactive)		21.2 µM (inactive)	26.5 µM (inactive)	64.1 µM (inactive)	71.1 µM (inactive)	> 100 µM (inactive)		> 100 µM (inactive)	18.1 µM (inactive)	56 µM (inactive)	35.6 µM (inactive)	> 100 µM (inactive)	> 100 µM (inactive)	12.3 µM (inactive)
O=C1CC[N+]2=Cc3ccccc3O[B-]2(c2ccccc2)O1 (stereo not given)	> 100 µM (inactive)	> 100 µM (inactive)	> 100 µM (inactive)	> 100 µM (inactive)	> 100 µM (inactive)	> 100 µM (inactive)	21.5 µM (inactive)	> 100 µM (inactive)	> 100 µM (inactive)	> 100 µM (inactive)	> 100 µM (inactive)	> 100 µM (inactive)	> 100 µM (inactive)	> 100 µM (inactive)	> 100 µM (inactive)	> 100 µM (inactive)	> 100 µM (inactive)	> 100 µM (inactive)	> 100 µM (inactive)
CNc1nc2c(C)ccc3nc(N(C)C)[nH]c3c-2n1	85.1 µM (inactive)	39.9 µM (inactive)	84.7 µM (inactive)	81.8 µM (inactive)	26.7 µM (inactive)	28.2 µM (inactive)	> 100 µM (inactive)	47.8 µM (inactive)	31.7 µM (inactive)	76.7 µM (inactive)	26.2 µM (inactive)	74.8 µM (inactive)	20.7 µM (inactive)	25.7 µM (inactive)	36.1 µM (inactive)	15.3 µM (inactive)	43.8 µM (inactive)	47.3 µM (inactive)	43.7 µM (inactive)
C/C(=N\NC(=S)NC(C)(C)C)c1nc2cccnc2[nH]1	18.6 µM (inactive)	3.29 µM (inactive)	2.55 µM (inactive)	0.955 µM (active)	2.26 µM (inactive)	3.79 µM (inactive)	1.47 µM (inactive)	3.06 µM (inactive)	3.4 µM (inactive)	3.4 µM (inactive)	3.03 µM (inactive)	1.14 µM (inactive)	6.05 µM (inactive)	4.92 µM (inactive)	7.74 µM (inactive)	6.93 µM (inactive)	4.9 µM (inactive)	3.47 µM (inactive)	6.15 µM (inactive)
COCCOC(=O)c1c(C)[n+]([O-])c2cc(Cl)c(Cl)cc2[n+]1[O-]	20.3 µM (inactive)	12.7 µM (inactive)	19.1 µM (inactive)	9.29 µM (inactive)	12.5 µM (inactive)		5.21 µM (inactive)	3.85 µM (inactive)	13.5 µM (inactive)		7.85 µM (inactive)	16.7 µM (inactive)	4.69 µM (inactive)	30.4 µM (inactive)	20 µM (inactive)	40.8 µM (inactive)	4.76 µM (inactive)	20 µM (inactive)	11 µM (inactive)
C[n+]1c(-c2ccc(/C=N/Nc3ccnc(N/N=C/c4ccc(-c5cn6ccsc6[n+]5C)cc4)n3)cc2)cn2ccsc21	27.9 µM (inactive)	28.6 µM (inactive)	36.1 µM (inactive)	14.9 µM (inactive)	35.4 µM (inactive)	31.6 µM (inactive)	31.5 µM (inactive)	19.1 µM (inactive)		17.7 µM (inactive)	16.9 µM (inactive)	19.1 µM (inactive)	8.61 µM (inactive)	21.5 µM (inactive)	31.5 µM (inactive)	32.8 µM (inactive)	11.3 µM (inactive)	33 µM (inactive)	25.9 µM (inactive)
CC(=O)O[C@H]1C(=O)[C@@]2(C)[C@H]([C@H](OC(=O)c3cccc(C(F)(F)F)c3)[C@]3(O)C[C@H](OC(=O)[C@H](O)[C@@H](NC(=O)c4ccccc4)c4ccccc4)C(C)=C1C3(C)C)[C@]1(OC(C)=O)CO[C@@H]1C[C@@H]2O	0.131 µM (active)	0.00261 µM (active)	0.035 µM (active)	< 0.0025 µM (active)	< 0.0025 µM (active)	0.0111 µM (active)	0.52 µM (active)	0.00703 µM (active)		0.00946 µM (active)	0.00469 µM (active)	0.00475 µM (active)	< 0.0025 µM (active)	0.0222 µM (active)	0.00603 µM (active)	0.0889 µM (active)	< 0.0025 µM (active)	< 0.0025 µM (active)	0.0162 µM (active)
CSC1=C(C)S/C(=C\c2ccc(/C=C3\SC(C)=C(SC)S3)cc2)S1	> 100 µM (inactive)	> 100 µM (inactive)	> 100 µM (inactive)	> 100 µM (inactive)	> 100 µM (inactive)	> 100 µM (inactive)	39.3 µM (inactive)	> 100 µM (inactive)	> 100 µM (inactive)	92.5 µM (inactive)	> 100 µM (inactive)	> 100 µM (inactive)		21.6 µM (inactive)	> 100 µM (inactive)	> 100 µM (inactive)	> 100 µM (inactive)	> 100 µM (inactive)	33.5 µM (inactive)
Cn1c(N)c(/C=N/NC(=O)CC#N)c(=O)n(C)c1=O	> 100 µM (inactive)	> 100 µM (inactive)	> 100 µM (inactive)	> 100 µM (inactive)	> 100 µM (inactive)	> 100 µM (inactive)		> 100 µM (inactive)	> 100 µM (inactive)	> 100 µM (inactive)	> 100 µM (inactive)	> 100 µM (inactive)	> 100 µM (inactive)	> 100 µM (inactive)	> 100 µM (inactive)	> 100 µM (inactive)	> 100 µM (inactive)	> 100 µM (inactive)	> 100 µM (inactive)
COC(=O)c1ccc2c(c1)CC1(C2)Cc2cc3c(c(C(=O)OC)c2C1)CCCC3 (stereo not given)	32.5 µM (inactive)	83.9 µM (inactive)	> 10 µM (inactive)	48.6 µM (inactive)	49.4 µM (inactive)	86.5 µM (inactive)	22.4 µM (inactive)	> 100 µM (inactive)	51.4 µM (inactive)	96.8 µM (inactive)	96.6 µM (inactive)	> 100 µM (inactive)	38.4 µM (inactive)	> 100 µM (inactive)	50.1 µM (inactive)		69.5 µM (inactive)	> 100 µM (inactive)	> 100 µM (inactive)
Cc1[nH]n(C2=NCCN2)c(=O)c1Cc1ccccc1	> 100 µM (inactive)	> 100 µM (inactive)	> 100 µM (inactive)	> 100 µM (inactive)	> 100 µM (inactive)		> 100 µM (inactive)	> 100 µM (inactive)	> 100 µM (inactive)	> 100 µM (inactive)	> 100 µM (inactive)	> 100 µM (inactive)	> 100 µM (inactive)	> 100 µM (inactive)		> 100 µM (inactive)	> 100 µM (inactive)	> 100 µM (inactive)	> 100 µM (inactive)
Cc1ccc(C)n1-n1c(-c2ccccc2)n[nH]c1=O	> 100 µM (inactive)	> 100 µM (inactive)	> 100 µM (inactive)	> 100 µM (inactive)	> 100 µM (inactive)	87.7 µM (inactive)		> 100 µM (inactive)	> 100 µM (inactive)	> 100 µM (inactive)	> 100 µM (inactive)	> 100 µM (inactive)	> 100 µM (inactive)	> 100 µM (inactive)	> 100 µM (inactive)	> 100 µM (inactive)	51.9 µM (inactive)	> 100 µM (inactive)	> 100 µM (inactive)
O=C(NC12CC3CC(CC(C3)C1)C2)n1cnc2cncnc21	65.9 µM (inactive)	47.5 µM (inactive)	46.8 µM (inactive)	26.5 µM (inactive)	20.6 µM (inactive)	35.6 µM (inactive)	28.2 µM (inactive)	26.6 µM (inactive)	25.8 µM (inactive)		32.3 µM (inactive)	34.3 µM (inactive)	22.5 µM (inactive)	26.5 µM (inactive)	36 µM (inactive)	93.3 µM (inactive)	24.4 µM (inactive)	39.8 µM (inactive)	18.2 µM (inactive)
CC(=O)NNC1=NN(C(C)=O)C2(S1)C(=O)Nc1ccc(C)cc12 (stereo not given)	38.1 µM (inactive)	94 µM (inactive)	47.8 µM (inactive)	48.4 µM (inactive)	> 100 µM (inactive)	47.1 µM (inactive)	29 µM (inactive)	66.5 µM (inactive)	> 100 µM (inactive)	> 100 µM (inactive)	67 µM (inactive)	> 100 µM (inactive)	34.8 µM (inactive)	44.9 µM (inactive)	> 100 µM (inactive)	52.5 µM (inactive)	55.5 µM (inactive)		35.3 µM (inactive)
